SMILES strings stand for the structures. Where two headings read alike, the source gives them in different places.

One experiment concerns the target HER2 (Homo sapiens (Human), UniProt P04626). As to the kind of experiment: BT474 cellular assay (HER2 inhibition), phospho-HER2 ELISA. In kind it is cell-based. Particulars: inhibition of phosphor HER2, BT474 cells, 2 hours compound incubation. Here is the method:
Assay a) BT474 Cellular Assay (HER2 Inhibition) Inhibition of phosphor HER2 was determined by enzyme-linked immunosorbent assay (ELISA) in BT474 cells. BT474 cell line was purchased from [NT] number HTB-20). Human Phospho-ErbB2 ELISA kit was purchased from R&D systems (catalog number DYC1768). Day 1: When the cells reach 70-90% confluence, cells were trypsinized and re-suspended. 5000 cells per well were seeded to a 384-well plate. The plate was incubated at 37° C. with 5% CO2 for 24 hours. ELISA plate was coated with 2 μg/ml capture antibody, which was incubated at 4° C. overnight. Day 2: 25 nl compounds was dosed by Echo from source plate and the 384-well plate was incubated at 37° C. for 2 hours. 30 μl lysis buffer was added to each well and the 384-well plate was shaken softly at 4° C. for 30 minutes. The ELISA plate was washed, blocked and incubated at room temperature for 1-2 hours. The blocked ELISA plate was washed and 20 μl cell lysate was transferred from the 384-well plate to the ELISA plate, which was incubated overnight at 4° C. Day 3: The ELISA plate was washed 3 times. 25 μl/well detection antibody was added (diluted 1 by 2000 in 1% BSA in PBS). After 2 hours of incubation with detection antibody, the ELISA plate was washed 3 times, 25 μl/well TMB substrate was added and incubated for 10-15 minutes before stop solution was added. Absorbance at 450 nm and 570 nm was read within 30 minutes after adding the stop solution. […] The IC50 results are provided in Table 1 for some exemplary compounds.

Another experiment has as its target wt-EGFR (Homo sapiens (Human), UniProt P00533). Description: NCI H838 cellular assay (wt-EGFR inhibition), phospho-EGFR ELISA. In kind it is cell-based. As for the experimental part: Assay b) NCI H838 Cellular Assay (Wt-EGFR Inhibition) Inhibition of phosphor wt-EGFR was determined by enzyme-linked immunosorbent assay (ELISA) in NCI H838 cells (ATCC, catalog number CRL-5844). Human Phospho-EGFR DuoSet IC ELISA kit was purchased from R&D systems (catalog number DYC1095). Day 1: When the cells reach 70-90% confluence, cells were trypsinized and re-suspended. 5000 cells per well were seeded to a 384-well plate. The plate was incubated at 37° C. with 5% CO2 for 24 hours. Day 2: Cell culture medium was replaced with 40 μL FBS-Free RPMI1640. After 2 hours of starvation, the 384-well plate was dosed with 40 nL of compounds by Echo from source plate and the 384-well plate was incubated at 37° C. with 5% CO2 for 2 hours. After 2 hours of incubation with compounds, EGF (final concentration at 100 ng/ml) was added to the plate which was incubated at 37° C. with 5% CO2 for 5-10 minutes. Medium was discarded from the plate and 30 μl/well lysis buffer was added to the plate which was incubated at 4° C. for 10 minutes. The cell lysates can be stored at −80° C. in cell plates but must be thawed at room temperature for at least 30 minutes prior to use and continuing the assay. ELISA plate was coated by diluting capture antibody to 4 μg/ml with PBS, and 25 μl/well was dispensed to 384 well UltraCruz® ELISA Plate, which was incubated at 4° C. overnight. Day 3: After the plates were washed three times with 100 μl/well of wash buffer, the plates were blocked by adding 75 μl of Block Buffer to each well and incubated at room temperature for 3 hours. After the plates were washed three times with 100 μl/well of wash buffer, 20 μl cell lysate was transferred to the blocked ELISA plate which was incubated for 2 hours at room temperature. After the plates were washed three times with 100 μl/well of wash buffer, 25 μl/well detection antibody (dilute 1 in 900 in assay buffer) was added the plate which was incubated for 2 hours, protected from light. After washed three times, 25 μl/well TMB substrate was added to the ELISA plate which was incubated for about 10-15 min, protected from light before addition of 25 μl/well stop solution. Absorbance was read at 450 nm and 570 nm within 30 minutes.
(In general: In an ELISA, binding on a coated surface is turned into a signal by an enzyme label.)

Setting [1] is: inhibition of phosphor wt-EGFR, NCI H838 cells, EGF 100 ng/ml.

HER2, sequence (P04626 23-1255): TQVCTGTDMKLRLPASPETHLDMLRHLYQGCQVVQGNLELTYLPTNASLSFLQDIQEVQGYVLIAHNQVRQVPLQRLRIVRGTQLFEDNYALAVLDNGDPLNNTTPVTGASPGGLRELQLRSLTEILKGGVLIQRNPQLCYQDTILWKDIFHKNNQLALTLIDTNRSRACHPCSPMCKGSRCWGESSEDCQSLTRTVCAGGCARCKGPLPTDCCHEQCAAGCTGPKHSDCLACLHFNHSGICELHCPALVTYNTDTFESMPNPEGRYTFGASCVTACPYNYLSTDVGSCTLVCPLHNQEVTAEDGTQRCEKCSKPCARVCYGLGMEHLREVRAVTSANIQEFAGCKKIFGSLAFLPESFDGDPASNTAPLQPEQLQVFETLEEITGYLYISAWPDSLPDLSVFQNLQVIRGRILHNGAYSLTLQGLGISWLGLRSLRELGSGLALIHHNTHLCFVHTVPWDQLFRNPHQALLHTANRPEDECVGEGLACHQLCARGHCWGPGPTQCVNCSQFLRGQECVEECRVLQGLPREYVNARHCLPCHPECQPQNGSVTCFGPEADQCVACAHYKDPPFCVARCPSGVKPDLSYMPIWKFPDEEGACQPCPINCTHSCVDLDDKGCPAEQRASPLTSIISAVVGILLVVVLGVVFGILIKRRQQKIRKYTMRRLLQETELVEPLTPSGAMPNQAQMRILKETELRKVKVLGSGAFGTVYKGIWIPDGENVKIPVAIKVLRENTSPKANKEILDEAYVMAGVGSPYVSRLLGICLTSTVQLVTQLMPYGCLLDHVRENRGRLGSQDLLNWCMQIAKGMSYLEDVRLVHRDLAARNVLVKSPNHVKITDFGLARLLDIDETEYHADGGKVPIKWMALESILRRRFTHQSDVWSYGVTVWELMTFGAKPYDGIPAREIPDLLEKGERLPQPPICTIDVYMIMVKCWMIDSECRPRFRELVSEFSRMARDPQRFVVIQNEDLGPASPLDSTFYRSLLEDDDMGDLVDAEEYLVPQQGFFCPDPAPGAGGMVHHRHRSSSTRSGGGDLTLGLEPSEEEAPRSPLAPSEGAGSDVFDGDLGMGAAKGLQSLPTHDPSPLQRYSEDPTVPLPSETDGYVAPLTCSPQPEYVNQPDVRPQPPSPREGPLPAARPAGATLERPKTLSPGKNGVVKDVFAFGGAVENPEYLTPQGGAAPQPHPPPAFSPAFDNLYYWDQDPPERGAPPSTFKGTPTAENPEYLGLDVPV
wt-EGFR, sequence (P00533 25-1210): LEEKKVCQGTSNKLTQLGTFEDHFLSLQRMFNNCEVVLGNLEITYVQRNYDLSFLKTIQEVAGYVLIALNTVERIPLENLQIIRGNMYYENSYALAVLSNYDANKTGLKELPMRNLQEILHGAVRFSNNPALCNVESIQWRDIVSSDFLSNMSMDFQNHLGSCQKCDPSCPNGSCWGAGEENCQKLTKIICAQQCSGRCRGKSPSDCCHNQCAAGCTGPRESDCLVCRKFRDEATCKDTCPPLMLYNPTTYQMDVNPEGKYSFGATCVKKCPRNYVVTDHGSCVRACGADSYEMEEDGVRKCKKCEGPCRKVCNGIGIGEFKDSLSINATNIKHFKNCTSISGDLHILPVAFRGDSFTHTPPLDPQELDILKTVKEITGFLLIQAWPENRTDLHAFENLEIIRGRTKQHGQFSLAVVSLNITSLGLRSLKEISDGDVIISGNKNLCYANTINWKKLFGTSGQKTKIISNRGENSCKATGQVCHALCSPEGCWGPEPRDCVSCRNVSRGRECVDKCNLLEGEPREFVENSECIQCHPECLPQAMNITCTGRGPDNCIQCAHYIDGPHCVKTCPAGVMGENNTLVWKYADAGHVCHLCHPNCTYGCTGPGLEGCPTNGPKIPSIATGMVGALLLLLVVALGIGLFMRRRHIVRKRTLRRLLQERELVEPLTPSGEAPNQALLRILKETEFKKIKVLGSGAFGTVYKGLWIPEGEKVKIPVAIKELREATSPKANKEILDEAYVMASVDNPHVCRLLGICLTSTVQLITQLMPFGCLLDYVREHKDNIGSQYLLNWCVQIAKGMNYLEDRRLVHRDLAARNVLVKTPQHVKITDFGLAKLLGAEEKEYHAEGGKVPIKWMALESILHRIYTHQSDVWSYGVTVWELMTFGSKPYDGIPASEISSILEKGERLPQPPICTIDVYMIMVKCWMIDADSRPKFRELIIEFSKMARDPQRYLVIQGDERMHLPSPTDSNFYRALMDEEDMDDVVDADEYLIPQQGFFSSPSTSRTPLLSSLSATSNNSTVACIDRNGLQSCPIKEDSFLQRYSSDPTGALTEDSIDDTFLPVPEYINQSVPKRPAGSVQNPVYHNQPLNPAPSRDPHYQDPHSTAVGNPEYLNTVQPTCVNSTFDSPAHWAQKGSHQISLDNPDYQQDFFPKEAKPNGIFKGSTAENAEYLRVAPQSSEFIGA

The IC50 is the concentration that gives 50% inhibition. A higher IC50 goes with weaker potency in that assay. As to `COc1ccc2ncnc(Nc3ccc(Oc4cc5ncnn5cn4)c(C)c3)c2c1N1C[C@@H](N(C)C)[C@@H](F)C1` [Example 39, N-(4-([1,2,4]triazolo[1,5-c]pyrimidin-7-yloxy)-3-methylphenyl)-5-((3R,4S)-3-(dimethylamino)-4-fluoropyrrolidin-1-yl)-6-methoxyquinazolin-4-amine], the IC50 on HER2 was 0.094 µM; on wt-EGFR (setting [1]), greater than 10 µM.
As for `[2H]C([2H])([2H])Oc1ccc2ncnc(Nc3ccc(Oc4cc5ncnn5cn4)c(C)c3)c2c1O[C@H]1CCN(C)CC1(F)F` [Example 37, (S)—N-(4-([1,2,4]triazolo[1,5-c]pyrimidin-7-yloxy)-3-methylphenyl)-5-((3,3-difluoro-1-methylpiperidin-4-yl)oxy)-6-(methoxy-d3)quinazolin-4-amine], the values for the IC50 against HER2 and against wt-EGFR were 0.012 µM and greater than 10 µM, respectively.
Take `CCOc1ccc2ncnc(Nc3ccc(Oc4cc5ncnn5cn4)c(C)c3)c2c1N1CC(N(C)C)C1` [Example 11, N-(4-([1,2,4]triazolo[1,5-c]pyrimidin-7-yloxy)-3-methylphenyl)-5-(3-(dimethylamino)azetidin-1-yl)-6-ethoxyquinazolin-4-amine]: the IC50 at HER2 amounted to 0.013 µM; at wt-EGFR (setting [1]) it was 6.7 µM.
Turning to `COc1cc(O[C@H]2CCN(C)CC2(F)F)c2c(Nc3ccc(Oc4cc5ncnn5cn4)c(C)c3)ncnc2c1` [Example 51, (S)—N-(4-([1,2,4]triazolo[1,5-c]pyrimidin-7-yloxy)-3-methylphenyl)-5-((3,3-difluoro-1-methylpiperidin-4-yl)oxy)-7-methoxyquinazolin-4-amine], the IC50 against HER2 was 0.176 µM; at wt-EGFR (setting [1]), 0.183 µM.
For `Cc1cc(Nc2ncnc3cccc(N4CC5(CN(C)CCO5)C4)c23)ccc1Oc1cc2ncnn2cn1` [Example 55, N-(4-([1,2,4]triazolo[1,5-c]pyrimidin-7-yloxy)-3-methylphenyl)-5-(8-methyl-5-oxa-2,8-diazaspiro[3.5]nonan-2-yl)quinazolin-4-amine], in that order: 0.912 µM and greater than 10 µM.
Consider `COc1ccc2ncnc(Nc3ccc(Oc4cc5ncnn5cn4)c(C)c3)c2c1N1CC2(C[C@@H](F)CCN2C)C1` (single isomer, unassigned) [Example 48], for which the half-maximal inhibitory concentration (IC50) was 0.0067 µM against HER2 and 0.364 µM against wt-EGFR (setting [1]).
For `COc1ccc2ncnc(Nc3ccc(Oc4cc5ncnn5cn4)c(C)c3)c2c1N1CC(N(C)C)C1` [Example 1, N-(4-([1,2,4]triazolo[1,5-c]pyrimidin-7-yloxy)-3-methylphenyl)-5-(3-(dimethylamino)azetidin-1-yl)-6-methoxyquinazolin-4-amine], in that order: 0.0092 µM and 2.8 µM.
On to `[2H]C([2H])([2H])N1CCC(Oc2c(OC)ccc3ncnc(Nc4ccc(Oc5cc6ncnn6cn5)c(C)c4)c23)C(F)(F)C1` (stereo not drawn) [Example 35, N-(4-([1,2,4]triazolo[1,5-c]pyrimidin-7-yloxy)-3-methylphenyl)-5-((3,3-difluoro-1-(methyl-d3)piperidin-4-yl)oxy)-6-methoxyquinazolin-4-amine], for which the IC50 at HER2 amounted to 0.016 µM; on wt-EGFR, 1.28 µM.
As for `COc1ccc2ncnc(Nc3ccc(Oc4cc5ncnn5cn4)c(Cl)c3)c2c1O[C@H]1CCN(C)CC1(F)F` [Example 34, (S)—N-(4-([1,2,4]triazolo[1,5-c]pyrimidin-7-yloxy)-3-chlorophenyl)-5-((3,3-difluoro-1-methylpiperidin-4-yl)oxy)-6-methoxyquinazolin-4-amine], the 50% inhibitory concentration (IC50) stood at 0.018 µM against HER2 and 6.3 µM on wt-EGFR (setting [1]).
For the compound `COc1ccc2ncnc(Nc3ccc(Oc4cc5ncnn5cn4)c(C)c3)c2c1N1CC[C@H](N(C)C)C1` [Example 3, (S)—N-(4-([1,2,4]triazolo[1,5-c]pyrimidin-7-yloxy)-3-methylphenyl)-5-(3-(dimethylamino)pyrrolidin-1-yl)-6-methoxyquinazolin-4-amine], the IC50 against HER2 was 0.031 µM; at wt-EGFR (setting [1]) it was 0.33 µM.
With `COc1ccc2ncnc(Nc3ccc(Oc4cc5ncnn5cn4)c(C)c3)c2c1N1CCOCC1` [Example 4, N-(4-([1,2,4]triazolo[1,5-c]pyrimidin-7-yloxy)-3-methylphenyl)-6-methoxy-5-morpholinoquinazolin-4-amine], the IC50 against HER2 is 0.105 µM; at wt-EGFR (setting [1]), greater than 10 µM.
Take `Cc1cc(Nc2ncnc3ccc(NC4=NC(C)(C)CO4)c(N4CC(N(C)C)C4)c23)ccc1Oc1cc2ncnn2cn1` [Example 54, N4-(4-([1,2,4]triazolo[1,5-c]pyrimidin-7-yloxy)-3-methylphenyl)-N6-(4,4-dimethyl-4,5-dihydrooxazol-2-yl)-5-(3-(dimethylamino)azetidin-1-yl)quinazoline-4,6-diamine]: the IC50 was 0.19 µM against HER2 and greater than 10 µM on wt-EGFR (setting [1]).
For the compound `COc1ccc2ncnc(Nc3ccc(Oc4cc5ncnn5cn4)c(C)c3)c2c1O[C@H]1CCN(C)CC1(F)F` [Example 32, (S)—N-(4-([1,2,4]triazolo[1,5-c]pyrimidin-7-yloxy)-3-methylphenyl)-5-((3,3-difluoro-1-methylpiperidin-4-yl)oxy)-6-methoxyquinazolin-4-amine], the concentration for half-maximal inhibition (IC50) came out at 0.016 µM at HER2 and 4.8 µM against wt-EGFR.
As for `COc1ccc2ncnc(Nc3ccc(Oc4cc5ncnn5cn4)c(C)c3)c2c1N1CC2(C[C@@H](F)CN2C)C1` (single isomer, unassigned) [Example 44], the results for the 50% inhibitory concentration (IC50) at HER2 and against wt-EGFR (setting [1]) were 0.005 µM and 0.234 µM, respectively.
Consider `COc1ccc2ncnc(Nc3ccc(Oc4cc5ncnn5cn4)c(C)c3)c2c1O[C@@H]1CCN(C2CC2)CC1(F)F` [Example 79, (R)-N-(4-([1,2,4]triazolo[1,5-c]pyrimidin-7-yloxy)-3-methylphenyl)-5-((1-cyclopropyl-3,3-difluoropiperidin-4-yl)oxy)-6-methoxyquinazolin-4-amine], for which inhibition at HER2 was half-maximal at 0.0098 µM (IC50).
Still for that read-out and setting: next, `COc1ccc2ncnc(Nc3ccc(Oc4cc5ncnn5cn4)c(C)c3)c2c1OC1CCN(C)CC1` [Example 5, N-(4-([1,2,4]triazolo[1,5-c]pyrimidin-7-yloxy)-3-methylphenyl)-6-methoxy-5-((1-methylpiperidin-4-yl)oxy)quinazolin-4-amine]: 0.082 µM; `COc1ccc2ncc(C#N)c(Nc3ccc(Oc4cc5ncnn5cn4)c(C)c3)c2c1O[C@@H]1CCN(C)CC1(F)F` [Example 86, (R)-4-((4-([1,2,4]triazolo[1,5-c]pyrimidin-7-yloxy)-3-methylphenyl)amino)-5-((3,3-difluoro-1-methylpiperidin-4-yl)oxy)-6-methoxyquinoline-3-carbonitrile]: 0.208 µM; `C=CC(=O)N1CCC=C(c2cc(N3CC(N(C)C)C3)c3c(Nc4ccc(Oc5cc6ncnn6cn5)c(C)c4)ncnc3c2)C1` [Example 84, 1-(5-(4-((4-([1,2,4]triazolo[1,5-c]pyrimidin-7-yloxy)-3-methylphenyl)amino)-5-(3-(dimethylamino)azetidin-1-yl)quinazolin-7-yl)-3,6-dihydropyridin-1(2H)-yl)prop-2-en-1-one]: 0.207 µM.
Same read-out and setting: next, `COc1ccc2ncnc(Nc3ccc(Oc4cc5ncnn5cn4)c(C)c3)c2c1N1CC2C1CCN2C1CC1` (stereo not drawn) [Example 67, N-(4-([1,2,4]triazolo[1,5-c]pyrimidin-7-yloxy)-3-methylphenyl)-5-(2-cyclopropyl-2,6-diazabicyclo[3.2.0]heptan-6-yl)-6-methoxyquinazolin-4-amine]: 0.017 µM.

The record behind these values is US11723908B2, “Quinazoline derivatives as antitumor agents” (SUZHOU ZANRONG PHARMA LIMITED, priority 2018, dated 2023).
